For experiment [1] the following is noted: murine model of acute inflammation; cited from earlier work.
Experiment [2] has as its system CCI-induced cold hypersensitivity. Kind of experiment: Chronic Constriction Injury (CCI)-Induced Model of Neuropathic Pain-Cold Acetone-Hypersensitivity Test. Format: in vivo. The settings on record: Sprague-Dawley rats, 30 mg/kg p.o., HPβCD vehicle, last time point 4 h. How it is done: Fourteen to 35 days following CCI surgery, subjects were placed in elevated observation chambers containing wire mesh floors, and five applications of acetone (0.05 mL/application separated by about 5 min) were spritzed onto the plantar surface of the paw using a multidose syringe. An abrupt withdrawal or lifting of the paw was considered a positive response. The number of positive responses was recorded for each rat over the five trials. Following baseline withdrawal determinations, compounds were administered in the indicated vehicle, by the indicated route (see Table 6). The number of withdrawals was re-determined 1 to 4 h after compound administration.

In experiment [3] the test system is CFA induced paw pressure hypersensitivity. Kind of experiment: CFA-Induced Paw Pressure Hypersensitivity. The following applies: rat, dose 30, s.c., HPβCD vehicle, time 1 h. Format: in vivo. The procedure:
Prior to testing, rats were acclimated to the handling procedure twice a day for a period of two days. […] The endpoint was automatically reached upon hindpaw withdrawal, and the terminal force was noted (in grams). An initial (baseline) response threshold to the mechanical stimulus was recorded for each animal prior to the injection of complete Freund's adjuvant (CFA). Forty hr following intraplantar CFA injection, the response threshold of the animal to the mechanical stimulus was re-evaluated and compared to the animal's baseline response threshold. A response was defined as a withdrawal of the hindpaw, a struggling to remove the hindpaw or vocalization. […] Immediately following the post-CFA threshold assessment, rats were administered the indicated test compound or vehicle. Post-treatment withdrawal thresholds were assessed at 1 h. Paw withdrawal thresholds were converted to percent reversal of hypersensitivity according to the following formula: % reversal=[(post treatment response−predose response)/(baseline response−predose response)]×100.

Experiment [4] deals with tactile allodynia. Put plainly: Spinal Nerve Ligation (SNL) Model of Neuropathic Pain-Tactile Allodynia Test. Type of experiment: in vivo, rat. The settings on record: L5 SNL rats, 30 mg/kg p.o., HPβCD vehicle, last time point 4 h. From the text:
For lumbar 5 (L5) spinal nerve ligation (SNL) studies, anesthesia was induced and maintained on isoflurane inhalation. Fur was clipped over the dorsal pelvic area, and a 2-cm skin incision was made just left of midline over the dorsal aspect of the L4-S2 spinal segments, followed by separation of the paraspinal muscles from spinous processes. The transverse process of L6 was then carefully removed, and the L5 spinal nerve was identified. The left L5 spinal nerve was then ligated tightly with 6-0 silk thread, the muscle was sutured with 4-0 vicryl, and the skin was closed with wound clips. Following surgery, s.c. saline (5 mL) was administered. Behavioral testing was performed four weeks post-ligation. Following baseline von Frey determinations to verify the presence of mechanical allodynia, L5 SNL rats were orally administered the indicated vehicle or drug. […] which the paw ipsilateral to the nerve ligation was withdrawn from the application of a series of calibrated von Frey filaments (0.4, 0.6, 1.0, 2.0, 4, 6, 8 and 15 g; Stoelting; Wood Dale, Ill.). Beginning at an intermediate stiffness (2.0 g), filaments were applied to the mid-plantar hind paw for approximately 5 seconds. to determine the response threshold, a brisk paw withdrawal led to the presentation of the next lighter stimulus, whereas a lack of a withdrawal response led to the presentation of the next stronger stimulus. A total of four responses after the first threshold detection were collected. The 50% withdrawal thresholds were interpolated by the method of Dixon, Efficient analysis of experimental observations. Annu. Rev. Pharmacol. […] Neurosci. […] Threshold data from von Frey filament testing were reported as withdrawal threshold in grams. Data were normalized and results are presented as % MPE (maximum possible effect) of the drug calculated according to the following formula: [formula]

The values that follow come from patent publication US8697683B2, “Azetidinyl diamides as monoacylglycerol lipase inhibitors” (Janssen Pharmaceutica, NV, priority 2009, dated 2014).

For `O=C(Nc1cccc(-c2ccccc2)c1)OC1CCCCC1` [URB602], in experiment [1], the antinociceptive effect result is recorded as “showed an antinociceptive effect”. In turn, `O=C(c1ccccc1)N1CCN(C2CN(C(=O)c3ccc(-c4ccccc4)cc3)C2)CC1` [Cpd 5, 1-[1-(Biphenyl-4-ylcarbonyl)azetidin-3-yl]-4-(phenylcarbonyl)piperazine] showed a peak percent inhibition in experiment [2] of 26.7%. As for `O=C(c1ccc2c(ccn2-c2ccc(F)c(F)c2)c1)N1CC(N2CCN(C(=O)c3nccs3)CC2)C1` [Cpd 1362, 1-(3,4-Difluorophenyl)-5-({3-[4-(1,3-thiazol-2-ylcarbonyl)piperazin-1-yl]azetidin-1-yl}carbonyl)-1H-indole], the percent reversal in experiment [3] stood at 56.7%. Moreover, the “peak % MPE” value in experiment [4] came to 84.3%. `O=C(c1cscn1)N1CCN(C2CN(C(=O)c3sc4cc(C(F)(F)F)ccc4c3Cl)C2)CC1` [Cpd 335, 1-(1-{[3-Chloro-6-(trifluoromethyl)-1-benzothiophen-2-yl]carbonyl}azetidin-3-yl)-4-(1,3-thiazol-4-ylcarbonyl)piperazine]: the “peak % MPE” value in experiment [4] is 50.1%.

With `O=C(c1ccc2c(ccn2-c2ccc(F)cc2)c1)N1CC(N2CCN(C(=O)c3nccs3)CC2)C1` [Cpd 487, 1-(4-Fluorophenyl)-5-({3-[4-(1,3-thiazol-2-ylcarbonyl)piperazin-1-yl]azetidin-1-yl}carbonyl)-1H-indole], the percent reversal in experiment [3] was found to be 61.8%. Moreover, the “peak % MPE” value in experiment [4] worked out at 61.2%. Moreover, the peak percent inhibition in experiment [2] was determined as 100%.
